For one series, the system named is thrombocyte aggregation. The experiment in a line: Thrombocyte aggregation according to Born and Cross (collagen-induced, platelet-rich plasma). Format: cell-based. The note with it: platelet-rich plasma from healthy human test subjects; aggregation initiated by collagen. The protocol: Determination of the thrombocyte aggregation according to Born and Cross [J. Physiol. 170, 397 (1964)]
The thrombocyte aggregation was determined in platelet-rich plasma from healthy human test subjects. The course of decrease in optical density after the administration of standard commercial collagen (made by the Sigma Co., St. Louis, Mo.) containing 1 mg of collagen fibrils per ml was measured photometrically and recorded. The rate of aggregation (Vmax) was deduced from the angle of inclination of the density curve. The point on the curve where there was most light transmittance was used to calculate the optical density (O.D.). To initiate maximum aggregation, about 0.01 ml of the collagen solution was added to 1 ml of platelet-rich plasma.

In the next series the test system is anesthetized cat. The experiment in a line: Hypotensive and positive inotropic activity in the anesthetized cat. The note with it: average; for Change in blood pressure (first value of the printed pair) / Change in blood pressure (second value of the printed pair): arterial pressure, aorta abdominalis; for Change in blood pressure (first value of the printed pair): first number before the slash; for Change in blood pressure (second value of the printed pair): second number after the slash; for Increase in dp/dt: left ventricle pressure, dp/dtmax. Format: in vivo. The protocol:
Determination of hypotensive and positive inotropic activity in the anesthetized cat
The tests were carried out on cats which had been anesthetized with sodium pentobarbital (40 mg/kg i.p.). The animals breathed spontaneously. The arterial blood pressure was measured in the aorta abdominalis using a Statham pressure transducer (P 23 Dc). To determine the positive inotropic effect, the pressure in the left ventricle of the heart was measured using a catheter-tip manometer (Milliar PC-350 A). From this, the contractility parameter (dp/dtmax was obtained by means of an analog differentiator.
The test compounds were injected into a vena femoralis. Physiological saline solution or Polydiol 200 was used as the solvent. Each compound was tested on at least 3 cats in a dosage of 0.1 or 2.0 mg/kg i.v. The duration of activity of the test compounds was at least 45 minutes in each case.

A short description of the next series: Acute toxicity. The note with it: in vivo, po; peroral, mouse. The protocol:
In therapeutic doses the test substances are non-toxic. For example, compound B has a peroral LD50 of >50 mg/kg in the mouse.

In the case of `COc1ccc(C(=O)n2nnc3cc(C4=NNC(=O)CC4C)ccc32)cc1` (stereo not shown) [A, 5-Methyl-6-(1'-p-methoxybenzoyl-benzotriazol-5'-yl)-4,5-dihydro-3(2H)-pyridazinone], a half-maximal effect in the series on thrombocyte aggregation (EC50) was put at 270 nM. Also, in the series with anesthetized cat (0.1 mg/kg i.v.), the “Change in blood pressure (first value of the printed pair)” value was -16 mm Hg, the “Change in blood pressure (second value of the printed pair)” value is on record as -16 mm Hg and the Increase in dp/dt entry is recorded as “+105%”.
Turning to `CC1CC(=O)NN=C1c1ccc2c(c1)nnn2C(=O)C1CCCCC1` (stereo not shown) [B, 5-Methyl-6-(1'-cyclohexanoyl-benzotriazol-5'-yl)-4,5-dihydro-3(2H)-pyridazinone], the EC50 in the series on thrombocyte aggregation came to 280 nM. Also, in the series on anesthetized cat (2.0 mg/kg i.v.), the “Change in blood pressure (first value of the printed pair)” value is -60 mm Hg, the “Change in blood pressure (second value of the printed pair)” value is listed as -37 mm Hg and the Increase in dp/dt result is given as “+154%”. Moreover, the LD50 in the series “Acute toxicity” is more than 50 mg/kg.
Turning to `CC1CC(=O)NN=C1c1ccc2c(c1)nnn2C(C)C` (stereo not shown) [C, 5-Methyl-6-(1'-isopropyl-benzotriazol-5'-yl)-4,5-dihydro-3(2H)-pyridazinone], it took 33 nM to reach a half-maximal effect in the series with thrombocyte aggregation (EC50). Moreover, in the series with anesthetized cat (0.1 mg/kg i.v.), the “Change in blood pressure (first value of the printed pair)” value was -27 mm Hg, the “Change in blood pressure (second value of the printed pair)” value was -33 mm Hg and the Increase in dp/dt result was “+116%”.
`COc1ccc(Cn2nnc3cc(C4=NNC(=O)CC4C)ccc32)cc1` (stereo not shown) [Compound E, 5-Methyl-6-(1'-p-methoxybenzyl-benzotriazol-5'-yl)-4,5-dihydro-3(2H)-pyridazinone]: in the series with anesthetized cat (0.1 mg/kg i.v.), the “Change in blood pressure (first value of the printed pair)” value is -48 mm Hg, the “Change in blood pressure (second value of the printed pair)” value is listed as -48 mm Hg and the Increase in dp/dt result is “+167%”.
In turn, `CCn1nnc2cc(C3=NNC(=O)CC3C)ccc21` (stereo not shown) [D, 5-Methyl-6-(1'-ethyl-benzotriazol-5'-yl)-4,5-dihydro-3(2H)-pyridazinone] gave an EC50 in the series with thrombocyte aggregation of 41 nM. Also, in the series with anesthetized cat (0.1 mg/kg i.v.), the “Change in blood pressure (first value of the printed pair)” value is reported as -30 mm Hg, the “Change in blood pressure (second value of the printed pair)” value is reported as -32 mm Hg and the Increase in dp/dt result is listed as “+125%”.
With `CC1CC(=O)NN=C1c1ccc2c(c1)nnn2CCN(C)C` (stereo not shown) [F, 5-Methyl-6-[1'-(2-dimethylaminoethyl)-benzotriazol-5'-yl]-4,5-dihydro-3(2H)-pyridazinone], in the series on thrombocyte aggregation, the EC50 came out at 300 nM.
As to `CC1CC(=O)NN=C1c1ccc2c(c1)nnn2C` (stereo not shown) [G, 5-Methyl-6-(1'-methyl-benzotriazol-5'-yl)-4,5-dihydro-3(2H)-pyridazinone], it took 51 nM to reach a half-maximal effect in the series on thrombocyte aggregation (EC50). In the series with anesthetized cat (0.1 mg/kg i.v.), the “Change in blood pressure (first value of the printed pair)” value is reported as -33 mm Hg, the “Change in blood pressure (second value of the printed pair)” value was -38 mm Hg and the Increase in dp/dt entry is “+168%”.

By EC50 is commonly meant the concentration at which the effect is half-maximal. Broadly, the LD50 is the dose expected to kill half of the subjects tested. A lower LD50 goes with greater toxicity.

The record behind these values is patent publication US4699909A, “Benzotriazolyl-4,5-dihydro-3(2H)-pyridazinones” (Dr. Karl Thomae GmbH, priority 1981, dated 1987).
